Source: patent US10562898B2, “Substituted benzenesulfonamides as inhibitors of alpha-4 beta-7 integrin activity” (EA PHARMA CO., LTD., priority 2016, dated 2020)

target: T1, α4β7 integrin (Homo sapiens, UniProt P13612+P26010); assay: MAdCAM-1/α4β7 integrin binding inhibitory activity evaluation test in presence of serum; format: cell-based; settings: RPMI-8866 cells, recombinant mouse MAdCAM-1/Fc, 50% human serum; read-out: α4β7 Serum Added IC50
T1 construct: a cell line RPMI-8866, which is known to express α4β7 integrin; endogenous in cells; host or cells: RPMI-8866 (human B cell line)
T1 sequence (P13612 34-1032): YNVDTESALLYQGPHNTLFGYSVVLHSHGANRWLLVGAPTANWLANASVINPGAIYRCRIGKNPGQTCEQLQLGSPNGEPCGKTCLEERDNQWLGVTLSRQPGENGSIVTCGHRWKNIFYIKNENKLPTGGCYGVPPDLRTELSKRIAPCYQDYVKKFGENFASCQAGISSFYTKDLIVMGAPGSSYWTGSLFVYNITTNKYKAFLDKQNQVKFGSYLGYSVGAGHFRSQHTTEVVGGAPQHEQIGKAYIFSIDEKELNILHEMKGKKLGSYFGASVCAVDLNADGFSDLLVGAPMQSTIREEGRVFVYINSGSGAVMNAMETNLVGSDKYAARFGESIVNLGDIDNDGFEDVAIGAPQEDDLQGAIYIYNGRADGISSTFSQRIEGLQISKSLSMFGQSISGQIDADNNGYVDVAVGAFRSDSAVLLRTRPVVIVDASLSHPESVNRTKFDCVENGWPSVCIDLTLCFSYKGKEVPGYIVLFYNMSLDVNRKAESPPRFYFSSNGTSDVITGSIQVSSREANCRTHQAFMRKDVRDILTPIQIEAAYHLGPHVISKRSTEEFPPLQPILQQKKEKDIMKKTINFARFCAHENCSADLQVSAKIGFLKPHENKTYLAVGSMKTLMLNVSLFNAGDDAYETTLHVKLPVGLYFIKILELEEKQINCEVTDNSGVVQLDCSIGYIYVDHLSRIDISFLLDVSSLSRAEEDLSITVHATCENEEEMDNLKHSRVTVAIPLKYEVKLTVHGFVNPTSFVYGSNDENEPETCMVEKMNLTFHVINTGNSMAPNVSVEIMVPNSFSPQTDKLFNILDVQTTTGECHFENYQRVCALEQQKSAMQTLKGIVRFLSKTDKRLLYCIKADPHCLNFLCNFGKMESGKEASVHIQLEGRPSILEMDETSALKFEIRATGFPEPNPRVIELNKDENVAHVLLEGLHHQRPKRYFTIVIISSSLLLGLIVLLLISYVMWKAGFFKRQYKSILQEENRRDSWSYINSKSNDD
T1 sequence (P26010 20-798): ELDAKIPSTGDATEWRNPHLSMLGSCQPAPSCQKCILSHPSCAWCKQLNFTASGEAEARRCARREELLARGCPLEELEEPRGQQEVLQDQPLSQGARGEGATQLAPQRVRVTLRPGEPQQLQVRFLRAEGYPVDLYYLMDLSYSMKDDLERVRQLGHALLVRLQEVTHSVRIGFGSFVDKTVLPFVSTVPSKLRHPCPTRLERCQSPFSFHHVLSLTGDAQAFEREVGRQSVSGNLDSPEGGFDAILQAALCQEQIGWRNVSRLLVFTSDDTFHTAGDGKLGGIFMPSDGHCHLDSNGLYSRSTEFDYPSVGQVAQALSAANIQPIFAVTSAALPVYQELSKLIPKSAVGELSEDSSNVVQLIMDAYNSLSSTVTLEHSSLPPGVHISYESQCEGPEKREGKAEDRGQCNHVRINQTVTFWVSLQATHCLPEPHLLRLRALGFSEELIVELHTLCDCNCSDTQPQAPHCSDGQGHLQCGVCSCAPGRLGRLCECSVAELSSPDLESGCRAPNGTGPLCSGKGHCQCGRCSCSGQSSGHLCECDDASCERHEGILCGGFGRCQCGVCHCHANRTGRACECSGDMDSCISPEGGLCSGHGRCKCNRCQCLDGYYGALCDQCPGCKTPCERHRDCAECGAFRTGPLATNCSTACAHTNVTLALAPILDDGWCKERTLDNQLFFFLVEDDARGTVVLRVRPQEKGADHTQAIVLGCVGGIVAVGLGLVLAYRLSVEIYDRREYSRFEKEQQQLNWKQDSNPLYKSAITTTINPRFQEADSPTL
Description: (3) MAdCAM-1/α4β7 Integrin Binding Inhibitory Activity Evaluation Test in Presence of Serum (1)
Each test substance was measured in terms of an ability to inhibit the MAdCAM-1 binding of a human B cell line, namely, a cell line RPMI-8866, which is known to express α4β7 integrin.
A solution of recombinant mouse MAdCAM-1/Fc (R&D Systems, Inc.) (1 μg/mL) diluted with a buffer A (carbonate buffer, pH 9.6) was added in an amount of 50 μL/well to a 96-well microtiter plate, followed by incubation at 4° C. overnight. After the plate was washed with PBS once, 150 μL/well of Block Ace (Snow Brand Milk Products Co., Ltd.) was added, followed by incubation at room temperature for 2 hours. After removal, the plate was washed with PBS once.
Then, 100 μL of the RPMI-8866 cells (2×10^6 cells/mL) and 100 of the test substance at each of various concentrations diluted with a binding buffer (DMEM containing 40 mM HEPES, 0.2% BSA, and 4 mM MnCl2) were added to the plate coated with the MAdCAM-1/Fc (5×10^5 cells/well) such that 50% human serum was contained at the final concentration. Then, incubation was allowed to proceed at 30° C. for 15 to 60 minutes. After the cells were bound to the wells, the plate was washed with PBS to remove unbound cells. A buffer C (PBS containing 1.5% Triton X-100) was added in an amount 50 μL/well to the plate to lyse the bound RPMI-8866 cells. After 30 μL of a substrate buffer (Promega, CytoTox 96 Non-Radioactive Cytotoxicity Assay) was added to 30 μL of the cell lysate, a reaction was allowed to proceed at room temperature in the dark for 30 minutes. After 30 μL of a stop solution (Promega, CytoTox 96 Non-Radioactive Cytotoxicity Assay) was added to each, and then an absorbance at 490 nm was measured using a plate reader. The absorbance obtained here represents a detection result of an activity of lactate dehydrogenase (LDH) eluted in the supernatant of each well, that is, the absorbance is proportional to the number of RPMI-8866 cells bound to the MAdCAM-1 and thus remaining on the plate. The test was performed in duplicate. Provided that the absorbance of the well containing no test substance was 100%, a cell binding rate with the test substance at each of the various concentrations was figured out, and a concentration IC50 which brought about 50% binding inhibition was calculated.

Q: Which IC50 does the source give for `Cc1c(C)n(C)c(=O)n(-c2ccc(C[C@H](NC(=O)c3cc(F)c(NS(=O)(=O)c4ccc(NC(=O)C(C)(C)CO)cc4)cc3F)C(=O)O)cc2)c1=O` [Compound A21] here?
A: 7.2 nM

Q: With `Cn1c(=O)n(-c2ccc(C[C@H](NC(=O)c3cc(F)c(NS(=O)(=O)c4ccc(NC(=O)C(C)(C)C)cc4)cc3F)C(=O)O)cc2)c(=O)c2ccncc21` [Compound A1, (2S)-2-[[4-[[4-(2,2-dimethylpropanoylamino)phenyl]sulfonylamino]-2,5-difluoro-benzoyl]amino]-3-[4-(1-methyl-2,4-dioxo-pyrido[3,4-d]pyrimidin-3-yl)phenyl]propanoic acid] as the compound, how does the IC50 read?
A: 10 nM

Q: `CN1C(=O)N(c2ccc(S(=O)(=O)Nc3cc(F)c(C(=O)N[C@@H](Cc4ccc(-n5c(=O)c6ccncc6n(C)c5=O)nc4)C(=O)O)cc3F)cc2)C(=O)C1(C)C` [Compound A38] was tested. Which IC50 did it give?
A: 20 nM

Q: For `Cc1cn(C)c(=O)n(-c2ccc(C[C@H](NC(=O)c3cc(F)c(NS(=O)(=O)c4ccc(NC(=O)C5CCCC5)cc4)cc3F)C(=O)O)cn2)c1=O` [Compound A65], which IC50 is on record?
A: 50 nM

Q: Which IC50 does the source give for `Cc1c(C)n(C)c(=O)n(-c2ccc(C[C@H](NC(=O)c3cc(F)c(NS(=O)(=O)c4ccc(NC(=O)C(C)(C)C)cc4)cc3F)C(=O)O)cn2)c1=O` [Compound A28] here?
A: 4.4 nM

Q: With `Cc1c(C)n(C)c(=O)n(-c2ccc(C[C@H](NC(=O)c3cc(F)c(NS(=O)(=O)c4ccc(N(C)C(=O)C(C)(C)C)cc4)cc3F)C(=O)O)cc2)c1=O` [Compound A35] as the compound, how does the IC50 read?
A: 600 nM

Q: For `Cn1c(=O)n(-c2ccc(C[C@H](NC(=O)c3cc(F)c(NS(=O)(=O)c4ccc(NC(=O)NC(C)(C)C)cc4)cc3F)C(=O)O)cc2)c(=O)c2ccncc21` [Compound A5], which IC50 is on record?
A: 70 nM

Q: `Cc1c(C)n(C)c(=O)n(-c2ccc(C[C@H](NC(=O)c3cc(F)c(NS(=O)(=O)c4cc(NC(=O)C(C)(C)C)cs4)cc3F)C(=O)O)cc2)c1=O` [Compound A11] was tested. Which IC50 did it give?
A: 38 nM

Q: Which IC50 does the source give for `Cc1c(C)n(C)c(=O)n(-c2ccc(C[C@H](NC(=O)c3cc(F)c(NS(=O)(=O)c4ccc(NC(=O)C5(C(F)(F)F)CC5)cc4)cc3F)C(=O)O)cc2)c1=O` [Compound A20] here?
A: 17 nM

Q: `Cn1ccc(=O)n(-c2ccc(C[C@H](NC(=O)c3cc(F)c(NS(=O)(=O)c4ccc(NC(=O)C(C)(C)C)cc4)cc3F)C(=O)O)nc2)c1=O` [Compound A70] was tested. Which IC50 did it give?
A: 33 nM

Q: Which IC50 does the source give for `Cc1c(C)n(C)c(=O)n(-c2ccc(C[C@H](NC(=O)c3cc(F)c(NS(=O)(=O)c4ccc(NC(=O)C(C)(C)C)cc4)cc3F)C(=O)O)cc2)c1=O` [Compound A8] here?
A: 3.7 nM

Q: For `Cc1cn(C)c(=O)n(-c2ccc(C[C@H](NC(=O)c3cc(F)c(NS(=O)(=O)c4ccc(NC(=O)C(C)(C)C)cc4)cc3F)C(=O)O)cn2)c1=O` [Compound A54], which IC50 is on record?
A: 8.4 nM

Q: With `Cn1c(=O)n(-c2ccc(C[C@H](NC(=O)c3cc(F)c(NS(=O)(=O)c4ccc(NC(=O)C5(O)CC5)cc4)cc3F)C(=O)O)cc2)c(=O)c2ccncc21` [Compound A23] as the compound, how does the IC50 read?
A: 32 nM

Q: For `Cc1c(C)n(C)c(=O)n(-c2ccc(C[C@H](NC(=O)c3cc(F)c(NS(=O)(=O)c4ccc(NC(=O)C(C)(C)C)nc4)cc3F)C(=O)O)cc2)c1=O` [Compound A25], which IC50 is on record?
A: 48 nM

Q: `Cn1c(=O)n(-c2ccc(C[C@H](NC(=O)c3cc(F)c(NS(=O)(=O)c4ccc(NC(=O)C(C)(C)C)cn4)cc3F)C(=O)O)cn2)c(=O)c2ccncc21` [Compound A31] was tested. Which IC50 did it give?
A: 5 nM

Q: For `Cn1ccc(=O)n(-c2ccc(C[C@H](NC(=O)c3cc(F)c(NS(=O)(=O)c4ccc(NC(=O)C(C)(C)C)cc4)cc3F)C(=O)O)cc2)c1=O` [Compound A42], which IC50 is on record?
A: 9.8 nM

Q: Which IC50 does the source give for `Cc1cn(C)c(=O)n(-c2ccc(C[C@H](NC(=O)c3cc(F)c(NS(=O)(=O)c4c[nH]c5cc(NC(=O)C(C)(C)C)ccc45)cc3F)C(=O)O)cn2)c1=O` [Compound A77] here?
A: 25 nM

Q: Which IC50 does the source give for `Cn1c(=O)n(-c2ccc(C[C@H](NC(=O)c3cc(F)c(NS(=O)(=O)c4ccc(NC(=O)C(C)(C)C)s4)cc3F)C(=O)O)cc2)c(=O)c2ccncc21` [Compound A9] here?
A: 4.5 nM

Q: Which IC50 does the source give for `CC(=O)Nc1ccc(S(=O)(=O)Nc2cc(F)c(C(=O)N[C@@H](Cc3ccc(-n4c(=O)c5ccncc5n(C)c4=O)cc3)C(=O)O)cc2F)cc1` [Compound A2] here?
A: 36 nM

Q: How did the IC50 turn out when `Cn1ccc(=O)n(-c2ccc(C[C@H](NC(=O)c3cc(F)c(NS(=O)(=O)c4ccc(NC(=O)C(C)(C)C(F)(F)F)cc4)cc3F)C(=O)O)cn2)c1=O` [Compound A57] was run?
A: 14 nM

Q: Which IC50 does the source give for `Cc1c(C)n(C)c(=O)n(-c2ccc(C[C@H](NC(=O)c3cc(F)c(NS(=O)(=O)c4ccc(NC(=O)C(C)(C)C)cn4)cc3F)C(=O)O)cc2)c1=O` [Compound A19] here?
A: 4.6 nM

Q: For `Cn1ccc(=O)n(-c2ccc(C[C@H](NC(=O)c3cc(F)c(NS(=O)(=O)c4ccc(NC(=O)C5(C#N)CC5)cc4)cc3F)C(=O)O)cn2)c1=O` [Compound A59], which IC50 is on record?
A: 93 nM

Q: With `Cc1c(C)n(C)c(=O)n(-c2ccc(C[C@H](NC(=O)c3cc(F)c(NS(=O)(=O)c4ccc(NC(=O)C(C)(C)C)s4)cc3F)C(=O)O)cc2)c1=O` [Compound A10] as the compound, how does the IC50 read?
A: 10 nM

Q: With `Cc1cn(C)c(=O)n(-c2ccc(C[C@H](NC(=O)c3cc(F)c(NS(=O)(=O)c4ccc5c(NC(=O)C(C)(C)C)c[nH]c5c4)cc3F)C(=O)O)cn2)c1=O` [Compound A74] as the compound, how does the IC50 read?
A: 50 nM

Q: Which IC50 does the source give for `Cc1cn(C)c(=O)n(-c2ccc(C[C@H](NC(=O)c3cc(F)c(NS(=O)(=O)c4ccc(NC(=O)C(C)(C)C(F)(F)F)cc4)cc3F)C(=O)O)cn2)c1=O` [Compound A58] here?
A: 12 nM

Q: For `COC1(C(=O)Nc2ccc(S(=O)(=O)Nc3cc(F)c(C(=O)N[C@@H](Cc4ccc(-n5c(=O)c6ccncc6n(C)c5=O)cc4)C(=O)O)cc3F)cc2)CC1` [Compound A16], which IC50 is on record?
A: 44 nM

Q: For `Cn1c(=O)n(-c2ccc(C[C@H](NC(=O)c3cc(F)c(NS(=O)(=O)c4ccc(NC(=O)C(C)(C)C)cc4)cc3F)C(=O)O)cn2)c(=O)c2ccncc21` [Compound A26], which IC50 is on record?
A: 6.4 nM
